# Source: US10160762B2, “6-alkyl dihydropyrazolopyrimidinone compounds as PDE2 inhibitors” (Merck Sharp & Dohme Corp., priority 2015, dated 2018)
# Biological target: T1, Rhesus PDE2A3 (Macaca mulatta, UniProt B3VTJ2)
# T1 construct: made in house; host or cells: AD293 cells, transient transfection; supernatant of sonicated lysate
# T1 sequence (B3VTJ2 1-941): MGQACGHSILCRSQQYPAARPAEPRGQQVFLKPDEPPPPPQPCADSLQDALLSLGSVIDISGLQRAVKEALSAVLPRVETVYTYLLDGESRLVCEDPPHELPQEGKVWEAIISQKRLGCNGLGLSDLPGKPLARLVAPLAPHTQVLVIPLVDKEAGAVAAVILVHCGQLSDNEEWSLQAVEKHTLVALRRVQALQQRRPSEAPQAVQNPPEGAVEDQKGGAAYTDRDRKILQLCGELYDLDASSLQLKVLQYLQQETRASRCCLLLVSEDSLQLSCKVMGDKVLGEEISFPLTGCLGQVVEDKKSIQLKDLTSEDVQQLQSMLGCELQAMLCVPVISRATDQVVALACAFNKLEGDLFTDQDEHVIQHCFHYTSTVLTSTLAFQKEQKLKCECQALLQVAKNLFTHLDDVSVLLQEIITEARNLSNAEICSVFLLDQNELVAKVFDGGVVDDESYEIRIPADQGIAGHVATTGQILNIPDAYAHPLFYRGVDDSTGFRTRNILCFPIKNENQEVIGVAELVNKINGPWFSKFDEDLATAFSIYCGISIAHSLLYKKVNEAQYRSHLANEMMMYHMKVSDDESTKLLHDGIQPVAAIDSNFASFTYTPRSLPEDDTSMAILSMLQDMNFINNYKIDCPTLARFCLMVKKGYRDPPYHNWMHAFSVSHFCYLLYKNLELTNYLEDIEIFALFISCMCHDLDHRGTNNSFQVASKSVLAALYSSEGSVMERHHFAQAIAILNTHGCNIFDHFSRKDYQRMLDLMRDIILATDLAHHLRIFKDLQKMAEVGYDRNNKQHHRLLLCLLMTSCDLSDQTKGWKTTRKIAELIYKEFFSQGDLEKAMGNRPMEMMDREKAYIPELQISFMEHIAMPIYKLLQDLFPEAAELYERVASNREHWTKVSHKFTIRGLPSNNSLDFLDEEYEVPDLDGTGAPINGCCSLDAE
# Assay: PDE2 fluorescence polarization (IMAP FP) inhibition assay, rhesus PDE2A3
# Type: biochemical, rhesus macaque
# Details: Lab A; read-out: Rhesus PDE2 Ki (nM) Lab A
# Method in brief: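 Enzyme source was the lysate supernatant of AD293 cells transiently expressing rhesus PDE2A3, diluted to give 20% conversion of 50 nM FAM-cAMP, with 1 µM cGMP as activator. Buffer was 10 mM Tris pH 7.2, 10 mM MgCl2, 1 mM DTT.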
row,SMILES,Ki
1,"Cc1nc2c(c(CO)nn2C(c2ccc(C(F)(F)F)cc2)C2CC2)c(=O)[nH]1 (centres unmarked) [Example 28, 1-(Cyclopropyl(4-(trifluoromethyl)phenyl)methyl)-3-(hydroxymethyl)-6-methyl-1H-pyrazolo[3,4-d]pyrimidin-4(5H)-one]",0.75 nM
2,"CCOCCc1nc2c(c(C)nn2C(C)c2ccc(C(F)(F)F)cc2)c(=O)[nH]1 (centres unmarked) [Example 35, 6-(2-Ethoxyethyl)-3-methyl-1-(1-(4-(trifluoromethyl)phenyl)ethyl)-1H-pyrazolo[3,4-d]pyrimidin-4(5H)-one]",164 nM
3,"CCCc1nc2c(c(C)nn2C(C)c2ccc(C(F)(F)F)cc2)c(=O)[nH]1 (centres unmarked) [Example 41, 3-Methyl-6-propyl-1-{1-[4-(trifluoromethyl)phenyl]ethyl}-1,5-dihydro-4H-pyrazolo[3,4-d]pyrimidin-4-one]",64 nM
4,"Cc1nn(C(C)c2ccc(C(F)(F)F)cc2)c2nc(C3CC3)[nH]c(=O)c12 (centres unmarked) [Example 42, 6-Cyclopropyl-3-methyl-1-{1-[4-(trifluoromethyl)phenyl]ethyl}-1,5-dihydro-4H-pyrazolo[3,4-d]pyrimidin-4-one]",58 nM
5,"Cc1nn(C(C)c2ccc(C(F)(F)F)cc2)c2nc(C(C)C)[nH]c(=O)c12 (centres unmarked) [Example 43, 3-Methyl-6-(1-methylethyl)-1-{1-[4-(trifluoromethyl)phenyl]ethyl}-1,5-dihydro-4H-pyrazolo[3,4-d]pyrimidin-4-one]",257 nM
6,"COc1cccc(Cc2nc3c(c(C)nn3C(C)c3ccc(C(F)(F)F)cc3)c(=O)[nH]2)c1 (centres unmarked) [Example 45, 6-(3-Methoxybenzyl)-3-methyl-1-{1-[4-(trifluoromethyl)phenyl]ethyl}-1,5-dihydro-4H-pyrazolo[3,4-d]pyrimidin-4-one]",26 nM
7,"COc1cccc(-c2nc3c(c(C)nn3C(C)c3ccc(C(F)(F)F)cc3)c(=O)[nH]2)c1 (centres unmarked) [Example 47, 6-(3-Methoxyphenyl)-3-methyl-1-{1-[4-(trifluoromethyl)phenyl]ethyl}-1,5-dihydro-4H-pyrazolo[3,4-d]pyrimidin-4-one]",18 nM
8,"COCc1nc2c(c(C)nn2C(C)c2ccc(C(F)(F)F)cc2)c(=O)[nH]1 (centres unmarked) [Example 48, 6-(Methoxymethyl)-3-methyl-1-{1-[4-(trifluoromethyl)phenyl]ethyl}-1,5-dihydro-4H-pyrazolo[3,4-d]pyrimidin-4-one]",36 nM
9,"Cc1nn(C(C)c2ccc(C(F)(F)F)cc2)c2nc(-c3cnc4ccccc4n3)[nH]c(=O)c12 (centres unmarked) [Example 50, 3-Methyl-6-quinoxalin-2-yl-1-{1-[4-(trifluoromethyl)phenyl]ethyl}-1,5-dihydro-4H-pyrazolo[3,4-d]pyrimidin-4-one]",62 nM
10,"Cc1nn(C(C)c2ccc(C(F)(F)F)cc2)c2nc(-c3cnn(C)c3)[nH]c(=O)c12 (centres unmarked) [Example 53, 3-Methyl-6-(1-methyl-1H-pyrazol-4-yl)-1-{1-[4-(trifluoromethyl)phenyl]ethyl}-1,5-dihydro-4H-pyrazolo[3,4-d]pyrimidin-4-one]",29 nM

# Results, then the compound that gave them:
row,Ki,SMILES
1,6.6 nM,"Cc1nn(C(C)c2ccc(C(F)(F)F)cc2)c2nc(Cc3cccc(O)c3)[nH]c(=O)c12 (centres unmarked) [Example 30, 6-(3-Hydroxybenzyl)-3-methyl-1-(1-(4-(trifluoromethyl)phenyl)ethyl)-1H-pyrazolo[3,4-d]pyrimidin-4(5H)-one]"
2,65 nM,"Cc1nn(C(C)c2ccc(C(F)(F)F)cc2)c2nc(Cc3ccccc3O)[nH]c(=O)c12 (centres unmarked) [Example 31, 6-(2-Hydroxybenzyl)-3-methyl-1-(1-(4-(trifluoromethyl)phenyl)ethyl)-1H-pyrazolo[3,4-d]pyrimidin-4(5H)-one]"
3,58 nM,"CCc1nc2c(c(C)nn2C(C)c2ccc(C(F)(F)F)cc2)c(=O)[nH]1 (centres unmarked) [Example 38, 6-Ethyl-3-methyl-1-{1-[4-(trifluoromethyl)phenyl]ethyl}-1,5-dihydro-4H-pyrazolo[3,4-d]pyrimidin-4-one]"
4,147 nM,"Cc1nn(C(C)c2ccc(C(F)(F)F)cc2)c2nc(C3CCC3)[nH]c(=O)c12 (centres unmarked) [Example 39, 6-Cyclobutyl-3-methyl-1-{1-[4-(trifluoromethyl)phenyl]ethyl}-1,5-dihydro-4H-pyrazolo[3,4-d]pyrimidin-4-one]"
5,340 nM,"Cc1nn(C(C)c2ccc(C(F)(F)F)cc2)c2nc(C3CCCC3)[nH]c(=O)c12 (centres unmarked) [Example 40, 6-Cyclopentyl-3-methyl-1-{1-[4-(trifluoromethyl)phenyl]ethyl}-1,5-dihydro-4H-pyrazolo[3,4-d]pyrimidin-4-one]"
6,4.8 nM,"COc1ccc(Cc2nc3c(c(C)nn3C(C)c3ccc(C(F)(F)F)cc3)c(=O)[nH]2)cc1OC (centres unmarked) [Example 44, 6-(3,4-Dimethoxybenzyl)-3-methyl-1-{1-[4-(trifluoromethyl)phenyl]ethyl}-1,5-dihydro-4H-pyrazolo[3,4-d]pyrimidin-4-one]"
7,7.1 nM,"COc1ccc(Cc2nc3c(c(C)nn3C(C)c3ccc(C(F)(F)F)cc3)c(=O)[nH]2)cc1 (centres unmarked) [Example 46, 6-(4-Methoxybenzyl)-3-methyl-1-{1-[4-(trifluoromethyl)phenyl]ethyl}-1,5-dihydro-4H-pyrazolo[3,4-d]pyrimidin-4-one]"
8,9 nM,"Cc1nn(C(C)c2ccc(C(F)(F)F)cc2)c2nc(-c3ccco3)[nH]c(=O)c12 (centres unmarked) [Example 49, 6-Furan-2-yl-3-methyl-1-{1-[4-(trifluoromethyl)phenyl]ethyl}-1,5-dihydro-4H-pyrazolo[3,4-d]pyrimidin-4-one]"
9,79 nM,"Cc1nn(C(C)c2ccc(C(F)(F)F)cc2)c2nc(CF)[nH]c(=O)c12 (centres unmarked) [Example 51, 6-(Fluoromethyl)-3-methyl-1-{1-[4-(trifluoromethyl)phenyl]ethyl}-1,5-dihydro-4H-pyrazolo[3,4-d]pyrimidin-4-one]"
10,28 nM,"Cc1nn(C(C)c2ccc(C(F)(F)F)cc2)c2nc(-c3ccccn3)[nH]c(=O)c12 (centres unmarked) [Example 52, 3-Methyl-6-pyridin-2-yl-1-{1-[4-(trifluoromethyl)phenyl]ethyl}-1,5-dihydro-4H-pyrazolo[3,4-d]pyrimidin-4-one]"
11,32 nM,"Cc1nc(-c2nc3c(c(C)nn3C(C)c3ccc(C(F)(F)F)cc3)c(=O)[nH]2)c(C)o1 (centres unmarked) [Example 54, 6-(2,5-Dimethyl-1,3-oxazol-4-yl)-3-methyl-1-{1-[4-(trifluoromethyl)phenyl]ethyl}-1,5-dihydro-4H-pyrazolo[3,4-d]pyrimidin-4-one]"
12,6.7 nM,"Cc1nc2c(c(C(F)F)nn2C(C)c2ccc(C(F)(F)F)cc2)c(=O)[nH]1 (centres unmarked) [Example 166, 3-(Difluoromethyl)-6-methyl-1-{1-[4-(trifluoromethyl)phenyl]ethyl}-1,5-dihydro-4H-pyrazolo[3,4-d]pyrimidin-4-one]"

# Same assay, conditions: Lab B; read-out: Rhesus PDE2 Ki (nM) Lab B
row,SMILES,Ki
1,"Cc1nc2c(c(CO)nn2C(c2ccc(C(F)(F)F)cc2)C2CC2)c(=O)[nH]1 (centres unmarked) [Example 28, 1-(Cyclopropyl(4-(trifluoromethyl)phenyl)methyl)-3-(hydroxymethyl)-6-methyl-1H-pyrazolo[3,4-d]pyrimidin-4(5H)-one]",2.2 nM
2,"Cc1nc2c(c(CO)nn2[C@@H](c2ccc(C(C)(C)C)cc2)C(C)C)c(=O)[nH]1 [Example 160, (R)-1-(1-(4-tert-Butylphenyl)-2-methylpropyl)-3-(hydroxymethyl)-6-methyl-1H-pyrazolo[3,4-d]pyrimidin-4(5H)-one]",0.3 nM
3,"Cc1nc2c(c(C(F)F)nn2C(c2ccc(OC(F)(F)F)c(F)c2)C2CC2)c(=O)[nH]1 (centres unmarked) [Example 193, 1-(Cyclopropyl(3-fluoro-4-(trifluoromethoxy)phenyl)methyl)-3-(difluoromethyl)-6-methyl-1H-pyrazolo[3,4-d]pyrimidin-4(5H)-one]",1.2 nM
4,"COc1ccc(C(=O)c2nc3c(c(C(F)F)nn3C(C)c3ccc(C(F)(F)F)cc3)c(=O)[nH]2)cc1OC (centres unmarked) [Example 198, 3-(Difluoromethyl)-6-(3,4-dimethoxybenzoyl)-1-(1-(4-(trifluoromethyl)phenyl)ethyl)-1H-pyrazolo[3,4-d]pyrimidin-4(5H)-one]",17 nM

# Next, values leading:
row,Ki,SMILES
1,11 nM,"Cc1nn(C(C)c2ccc(C(F)(F)F)cc2)c2nc(Cc3cccc(O)c3)[nH]c(=O)c12 (centres unmarked) [Example 30, 6-(3-Hydroxybenzyl)-3-methyl-1-(1-(4-(trifluoromethyl)phenyl)ethyl)-1H-pyrazolo[3,4-d]pyrimidin-4(5H)-one]"
2,128 nM,"Cc1nn(C(C)c2ccc(C(F)(F)F)cc2)c2nc(Cc3ccccc3O)[nH]c(=O)c12 (centres unmarked) [Example 31, 6-(2-Hydroxybenzyl)-3-methyl-1-(1-(4-(trifluoromethyl)phenyl)ethyl)-1H-pyrazolo[3,4-d]pyrimidin-4(5H)-one]"
3,0.96 nM,"Cc1nc2c(c(CO)nn2[C@@H](C)c2ccc(C(C)(C)C)cc2)c(=O)[nH]1 [Example 157, (S)-1-(1-(4-tert-Butylphenyl)ethyl)-3-(hydroxymethyl)-6-methyl-1H-pyrazolo[3,4-d]pyrimidin-4(5H)-one]"
4,4.5 nM,"Cc1nc2c(c(CO)nn2[C@@H](C)c2ccc(OC(F)(F)F)cc2)c(=O)[nH]1 [Example 158, (S)-3-(Hydroxymethyl)-6-methyl-1-(1-(4-(trifluoromethoxy)phenyl)ethyl)-1H-pyrazolo[3,4-d]pyrimidin-4(5H)-one]"
5,2.8 nM,"Cc1nc2c(c(CO)nn2[C@H](c2ccc(C(C)(C)C)cc2)C(C)C)c(=O)[nH]1 [Example 159, (S)-1-(1-(4-tert-Butylphenyl)-2-methylpropyl)-3-(hydroxymethyl)-6-methyl-1H-pyrazolo[3,4-d]pyrimidin-4(5H)-one]"
6,7.9 nM,"Cc1nc2c(c(C(F)F)nn2C(C)c2ccc(C(F)(F)F)cc2)c(=O)[nH]1 (centres unmarked) [Example 166, 3-(Difluoromethyl)-6-methyl-1-{1-[4-(trifluoromethyl)phenyl]ethyl}-1,5-dihydro-4H-pyrazolo[3,4-d]pyrimidin-4-one]"
